Measured values: the supplement of paper PMC11997997

What was measured:
[1] = tested on: Mycobacterium tuberculosis CDC1551 (intracellular, in murine BMDM); test: area under intracellular growth-inhibition dose-response curve (AUC (% inhibition x dose, relative)); higher = more potent; conditions: duration: 6 days; dose range: 0.13-80 uM, 8 points
How it was run: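 Primary murine bone marrow-derived macrophages in 384-well opaque plates were infected 24 h after seeding with luciferase-expressing M. tuberculosis CDC1551 at multiplicity of infection 1 for 1 h. They were then treated with an 8-dose, 2.5-fold series (final 80–0.13 μM) for 6 days. Growth was read by Bright-Glo luciferin assay and normalised to a reference drug control and the lowest-concentration wells. The value is the area under the growth-inhibition dose–response curve, calculated in GraphPad Prism.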

[2] = tested on: murine bone marrow-derived macrophages; test: area under cytotoxicity dose-response curve (AUC (% cytotoxicity x dose, relative)); higher = more cytotoxic; conditions: duration: 6 days; dose range: 0.13-80 uM, 8 points
How it was run: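 Using opaque 384-well plates, primary murine bone marrow-derived macrophages were treated for 6 days at 37 °C in 5% CO2 with an 8-point, 2.5-fold dilution series spanning final concentrations of 80–0.13 μM. After CellTiter-Glo (Promega) luminescence readout of viability, percent cytotoxicity was normalised to vehicle and positive control wells. The reported value is the area under the dose–response curve for cytotoxicity, derived in GraphPad Prism version 10.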

Row | Structure (SMILES) | area under intracellular growth-inhibition dose-response curve [1] | area under cytotoxicity dose-response curve [2]
1 | Cc1ccc(C(=O)NCc2ccc(Cl)cc2)o1 | 263 | 15.1
2 | Cc1cc(C(=O)NCc2cccs2)cs1 | 25.9 | 9.86
3 | C=CCn1c(SCC(=O)NC(=O)Cc2ccccc2)nc2ccccc2c1=O | 158 | < 0
4 | CC(=O)N1CCN(c2ccc(NC(=O)c3ccc([N+](=O)[O-])o3)cc2Cl)CC1 | 49.4 | 88.8
5 | O=C(NCc1ccccc1)C1COc2ccccc2O1 (configuration not stated) | 193 | 14.8
6 | CCN(CC)CCN(C(=O)c1ccc2c(c1)OCCO2)c1nc2cc(C)cc(C)c2s1.Cl | 246 | 8.98
7 | Cc1cc(C(C)(C)C)cc(C)c1C[n+]1c2n(c3ccc(C(F)(F)F)cc31)CCCCC2.[Cl-] | 138 | 120
8 | O=S1(=O)C=C(Sc2nc3ccccc3s2)c2ccccc21 | < 0 | 179
9 | COc1ccc(-c2n(C)c3ccccc3[n+]2CC(=O)OC2CC(C)CCC2C(C)C)cc1.[Cl-] (configuration not stated) | 140 | 117
10 | O=C(COc1ccc(Cl)cc1)N1CCCC1 | 213 | 64
11 | CC(C)C(=O)N1CCN(c2ccc(NC(=O)c3ccc([N+](=O)[O-])o3)cc2)CC1 | 64.2 | 84.2
12 | Cc1cc(/C=N/NC(N)=S)c(C)n1-c1ccc(Cl)cc1 | 220 | 44.8
13 | COC(=O)C(C)NC(=S)N1CCN(c2c(F)cc3c(=O)c(C(=O)O)cn(C4CC4)c3c2OC)CC1C (configuration not stated) | 90 | 23.4
14 | O=C(NC1CCCC1)C1CC1c1ccccc1 (configuration not stated) | 135 | < 0
15 | Cn1nnnc1SCC1=C(C(=O)O)N2C(=O)C(NC(=O)Cn3nc(C(F)F)cc3C3CC3)C2SC1 (configuration not stated) | 177 | 38.2
16 | Cc1ccc(S(=O)(=O)Nc2c(C)n(C)n(-c3ccccc3)c2=O)cc1C(=O)OC(C)C(=O)c1ccccc1 (configuration not stated) | 17 | 6.34
17 | Nc1nc(Cl)nc2c1ncn2[C@@H]1O[C@H](CO)[C@@H](O)[C@H]1O | 205 | 81.9
18 | CC1CCN(C(=O)COc2ccccc2F)CC1 | 214 | 50.5
19 | Br.CCCc1cc(-c2nc(-c3ccc(C)cc3)cs2)ccn1 | 80.7 | 45.6
20 | COc1cc(/C=N/NC(=O)c2ccncc2)ccc1OC(=O)c1cccc(F)c1 | 111 | 88.7
21 | Cc1ccc2nc(C)c3c(c2c1)SCC3 | 79.5 | 24.5

Row | Structure (SMILES) | area under intracellular growth-inhibition dose-response curve [1] | area under cytotoxicity dose-response curve [2]
22 | COc1cc(/C=N/NC(N)=S)ccc1OCc1ccc(C)cc1 | 255 | 30.4
23 | O=[N+]([O-])c1ccc(CN2CCN(c3ccccc3Cl)CC2)o1 | 123 | 63.5
24 | O=C(Nc1ccn(Cc2ccccc2)n1)c1ccc2c(c1)OCO2 | 121 | 62.2
25 | C/C(=N\NC(N)=S)c1ccc(-n2ccnc2)cc1 | 195 | 69
26 | COc1ccc(CCNC(=O)c2cc(-c3ccccn3)nc3ccccc23)cc1 | 40.6 | 17.5
27 | O=C(CCc1ccccc1)NC1C2CC3CC(C2)CC1C3 (configuration not stated) | 194 | 3.6
28 | CC[C@@H](C)[C@H](CNC)NC[C@@H](Cc1cccc2ccccc12)NCCc1cccc(C(F)(F)F)c1 | 144 | 117
29 | Cc1c([N+](=O)[O-])cc(C(=O)NCc2ccc(F)cc2)cc1[N+](=O)[O-] | 252 | < 0
30 | CNc1cc(Cl)c2nonc2c1[N+](=O)[O-] | 3.12 | 10.1
31 | COc1cc(/C=N/NC(N)=S)ccc1OC(=O)c1ccc(C)cc1 | 264 | 23.5
32 | O=C(N/N=C/c1ccc([N+](=O)[O-])o1)c1cc2ccccc2o1 | 106 | 43.2
33 | O=C(CC12CC3CC(CC(C3)C1)C2)NCc1ccco1 | 224 | 60.5
34 | Cc1ccccc1-n1c(SCC(=O)N/N=C/c2c(C)nn(-c3ccccc3)c2C)nc2ccccc2c1=O | 203 | 13.8
35 | NC(=S)N/N=C/c1ccc(-c2cc(Cl)ccc2Cl)o1 | 247 | 33.2
36 | CC(C)C(=O)N1CCN(c2ccc(NC(=O)c3ccc([N+](=O)[O-])o3)cc2Cl)CC1 | 109 | 79.8
37 | O=C(Nc1ccc(NC(=S)NC(=O)c2ccco2)cc1)c1ccccc1 | 192 | 40
38 | COc1ccc(C(=O)COC(=O)CNC(=O)c2ccc(C)s2)c(OC)c1 | 29.9 | < 0
39 | CO[C@@H]1[C@@H](OC(N)=O)[C@@H](O)C(Oc2ccc3c(O)c(NC(=O)c4ccc([O-])c(CC=C(C)C)c4)c(=O)oc3c2C)OC1(C)C.[Na+] (some centres not stated) | 24.9 | 80.2
40 | CNC[C@@H](Cc1ccccc1)NC[C@@H](CC1CCCCC1)NCCCc1ccccc1 | 104 | 61.5
41 | O=C(COC(=O)C1CC2CCCC(C1)C2=O)Nc1ccc(F)c(Cl)c1 (configuration not stated) | 90.3 | 44.5
42 | COc1cc(/C=N/NC(=O)C23CC4CC(CC(C4)C2)C3)cc(Br)c1O | 154 | 23.8

Row | Structure (SMILES) | area under intracellular growth-inhibition dose-response curve [1] | area under cytotoxicity dose-response curve [2]
43 | COc1ccc(C(C)NC(=O)c2ccccc2)cc1 (configuration not stated) | 222 | 237
44 | CCCN(CCC)CC(O)Cn1cc(/C=C/C(=O)c2ccccc2)c2ccccc21 (configuration not stated) | 226 | 9.39
45 | O=C(NN=C1CCCCCC1)c1ccncc1 | 273 | 11.3
46 | Cn1cc(/C=N/NC(N)=S)c2ccccc21 | 275 | < 0
47 | Cc1ccc(S(=O)(=O)N2CCOCC2)cc1C(=O)OCC(=O)NC1CC1 | 97.3 | 7.09
48 | O=C(/C=C/c1cccs1)NC1CCCC1 | 114 | 39.1
49 | O=C(CNC(=O)c1ccc([N+](=O)[O-])cc1)N/N=C\c1ccc(OC(=O)c2ccccc2)cc1 | 109 | < 0
50 | CCOc1ccc2oc(C(=O)OCC(=O)N3C(C)CCCC3C)c(C)c2c1 (configuration not stated) | 5.04 | 105
51 | CCOc1ccc2oc(C(=O)OCC(=O)NCc3ccc(OC)cc3)c(C)c2c1 | 58.1 | < 0
52 | CCOC(=O)c1c(C)nc2ccc(C)cn12 | 155 | 24.3
53 | C=CCOc1ccc(/C=N\NC(N)=S)cc1 | 276 | 10.8
54 | O=C(NCCC1CCCC1)c1cccs1 | 200 | 13.7
55 | CSCCC(NC(=O)c1ccccc1Br)C(=O)NNC(=O)c1ccncc1 (configuration not stated) | 244 | 12.7
56 | O=C(NCC1CC1)c1cc([N+](=O)[O-])cc([N+](=O)[O-])c1 | 202 | 36.7
57 | COc1ccc(NS(=O)(=O)c2cccc(N3CC(=O)C(c4ccccc4)=C3N)c2)cc1 | 43.8 | 45.7
58 | C=CCNC(=S)NNC(=O)CC12CC3CC(CC(C3)C1)C2 | 222 | 8.72
59 | COc1cccc(OCC(=O)NC2CCCCC2)c1 | 226 | 94
60 | Cc1cc(/C=N/NC(N)=S)c(C)n1-c1cccc(Cl)c1 | 190 | 34
61 | CCNc1nc(NCC)nc(N/N=C/c2ccc([N+](=O)[O-])o2)n1 | 266 | 18
